A short description of data set [1]: Size of particles delivered by DP-4 Dry Powder Insufflator, bright-field microscopy. The settings on record: roughly spherical particles. It counts as physicochemical. The method, then:
Particles that were delivered by the DP-4 Dry Powder Insufflator were analyzed by bright-field microscopy. […] Sizes were measured using Cell^D Imaging software (Olympus).

For data set [2], the system named is Calu-3 cells. Description: Transport of aerosolized compounds across Calu-3 monolayers (AID_M MicroSprayer, AID_D DP-4 insufflator). The settings on record: for Dye transport relative to SLE: application with DP-4 Dry Powder Insufflator (AID_D); for Dye transport relative to SLE incubation: application with MicroSprayer IA-1C Aerosolizer (AID_M).
Method: (§1) 0.5 x 10^6 Calu-3 cells (passage 32–38) were seeded per membrane and different exposure systems were used (Fig A in S1 File). To discriminate between the different exposures, the following terminology is used. Cultures with cells supplied with medium only from the basolateral side are termed air-liquid interface culture. In submersed liquid exposure (SLE) cells are cultured in submersion and exposed with compound dissolved in buffer. In the air liquid exposure (ALE) cells are cultured at an air-liquid interface and the compound dissolved in buffer is applied to the cells. For air-liquid interface deposition (AID) cells are cultured at an air-liquid interface and exposed to the compound applied as liquid aerosols by MicroSprayer IA-1C Aerosolizer (AID_M) or as powder aerosols by DP-4 Dry Powder Insufflator (AID_D). For comparison of the different exposure systems Calu-3 cells cultured for 11 days on 3 μm 12-well insert (Greiner Bio-One) were used.
(§2) For SLE and ALE exposures the apical compartment was filled with 500 μL and the basolateral compartment with 1500 μL. […] For AID studies the basal compartment was filled with 700 μl, and 200 μl of drug dissolved in Krebs-Ringer buffer were sprayed on each Transwell insert using the MicroSprayer IA-1C Aerosolizer (AID_M exposure). […] 100 μl samples from the basolateral compartment were taken at 0–30–60–90–120 min and replaced with pre-warmed Krebs-Ringer buffer. […] At the end of the SLE and ALE studies the content of the basolateral compartment and 10 μl of the apical compartment were collected. […] The total volume of this solution was determined and this value minus the added 100 μl used for calculations of drug concentrations. The entire content of the basolateral compartment and 10 μl of the apical compartment were collected.
(§3) The MicroSprayer IA-1C Aerosolizer (PennCentury Inc., Wyndmoor, PA) was used to mimic nebulization of the compounds. The device consists of a thin, flexible, stainless steel tube measuring 0.64 mm in diameter and 50.8 cm in length attached to the light, hand-operated, high-pressure syringe FMJ-250. A unique patented atomizer at the very tip of the tube generates the aerosol with a mass median diameter of 16–22 μm (http://www.penncentury.com/products/IA_1C.php). The device was fixed at a distance of 11 cm between tip of the MicroSprayer and the rim of the exposure plate. Inserts were transferred to a separate (exposure) plate to avoid contamination of the adjacent inserts and 200 μl of the aerosol were applied per well (Fig B, a in S1 File). After the treatment the insert was replaced into the original plate for transport studies. The device was cleaned with 70% ethanol and aqua dest. at the end of the experiments and dried at 60°C overnight.
(§4) Damage of monolayer integrity was interpreted as difference between TEER values before and after the experiments > 100 Ω*cm^2.
Data set [3] deals with Calu-3 cells. The settings on record: cited from earlier work; for Papp values of rhodamine 123 reported: ref [68],[70].
A short description of data set [4]: Transport studies across Calu-3 monolayers, compounds applied in solution (SLE, ALE), Papp. As to conditions: human; for Papp at 120 min, 10 μg/ml: pH 7.4, Papp values for fluorescein, n = 12.
Data set [5] concerns Calu-3 cells. The description is as above.
Another data set can be described thus: in vitro. The settings on record: human, pH 7.4, Papp.
Data set [6] has as its system Calu-3 cells.
Method: as §1, §2, §3, §4
Data set [7] relates to Calu-3 cells. As to conditions: human, pH 7.4.
Where [8] appears, read: pH 7.4, Papp, ALE (air-liquid interface culture, compound in buffer), n = 4.
The mark [9] stands for this setting: pH 7.4, Papp, SLE (submersed culture, compound in buffer), n = 4.

Where a name gives a salt, the structure may show the parent alone. Read-outs that look alike come from different tables or passages of the source.

For orientation: Papp means the rate of passage across a membrane or cell layer, normalised by area and donor concentration. Consider `O=C1OC2(c3ccc(O)cc3Oc3cc(O)ccc32)c2ccccc21` [Fluorescein, Sodium fluorescein], for which, in data set [1], the “Size of delivered single particles” value was determined as 1.1±0.3 μm. Also, in the data set with Calu-3 cells [2], the “Dye transport relative to SLE” value is reported as 131.7 times. The “Dye transport relative to SLE incubation” value in the data set on Calu-3 cells [2] is 4.3 times. The “Papp values of fluorescein published by other groups” value in the data set with Calu-3 cells [3] (SLE, ref [8],[41],[49],[65]–[69]) is listed as 0.1 x 10–6 cm/s. Further, the Papp at 120 min, 10 μg/ml in data set [4] (Air-liquid interface culture, 0.4 μm pores) was found to be 0.23 ± 0.04 ×10⁻⁶ cm/s; in data set [4] (Air-liquid interface culture, 3 μm pores), 0.27 ± 0.08 ×10⁻⁶ cm/s; in data set [4] (Submersed culture, 3 μm pores) it was 0.09 ± 0.04 ×10⁻⁶ cm/s. Moreover, the Papp at 120 min in data set [4] (setting [8]) is 0.27 ± 0.08 ×10⁻⁶ cm/s; in data set [4] (setting [9]), 0.09 ± 0.04 ×10⁻⁶ cm/s. In addition, the “Ratio Papp (ALE/ SLE)” value in the data set on Calu-3 cells [5] is recorded as 3.00.

For `COc1ccc(CC(C)NCC(O)c2ccc(O)c(NC=O)c2)cc1` (stereo not shown) [Formoterol, formoterol fumarate dihydrate], the Papp in “in vitro” worked out at 2.98 ± 0.79 ×10⁻⁶ cm/s. Also, the “Transport in the fixed dose combination Symbicort versus applied alone” value with Calu-3 cells [6] is “significantly higher”. Further, in the data set on Calu-3 cells [7], the Papp is reported as 1.72±0.24 10^−6 cm/s and the “Ratio Papp (ALE/ SLE)” value worked out at 1.73.

On to `CCCC1O[C@@H]2C[C@H]3[C@@H]4CCC5=CC(=O)C=C[C@]5(C)[C@H]4[C@@H](O)C[C@]3(C)[C@]2(C(=O)CO)O1` (stereo partly shown) [Budesonide, budesonide], for which the “Size of delivered single particles” value in data set [1] is reported as 3.2± 1.3 μm. Also, in the data set on Calu-3 cells [2] (DP-4 Dry Powder Insufflator (AID_D), n = 3), the “Transport in the fixed dose combination Symbicort versus applied alone” value is reported as “no differences”. Moreover, the Papp at 120 min in data set [4] (pH 7.4) was 17.9 ± 1.36 ×10⁻⁶ cm/s; in data set [4] (setting [9]), 13.18 ± 0.06 ×10⁻⁶ cm/s. Also, the “Ratio Papp (ALE/ SLE)” value in the data set on Calu-3 cells [5] stood at 1.36. In addition, the “Amount of budesonide in the cells” value with Calu-3 cells [5] (cell lysis after the last sample, total recovered amount 19.3±0.7 μg) came to 0.96 µg. The “Change of budesonide transport on co-incubation with formoterol” value in the data set on Calu-3 cells [5] (solution, SLE and ALE, mixture 50 μM budesonide and 0.5 mM formoterol fumarate) is “did not show changes”.

In the case of `COC(=O)c1ccccc1-c1c2ccc(=N)cc-2oc2cc(N)ccc12` [Rhodamine 123, rhodamine 123], the “Dye transport relative to SLE” value with Calu-3 cells [2] is given as 48.2 times. The “Dye transport relative to SLE incubation” value with Calu-3 cells [2] was 3.2 times. For the same compound, the “Papp values of rhodamine 123 reported” value in the data set on Calu-3 cells [3] (ALE) is 2.27 ×10⁻⁶ cm/s; in the data set on Calu-3 cells [3] (SLE) it was 0.49 ×10⁻⁶ cm/s. For the same compound, the Papp at 120 min stood at 0.27 ± 0.09 ×10⁻⁶ cm/s in data set [4] (setting [8]) and 0.07 ± 0.02 ×10⁻⁶ cm/s in data set [4] (setting [9]). In addition, in the data set on Calu-3 cells [5], the “Ratio Papp (ALE/ SLE)” value is on record as 3.86.

The values above are taken from article PMC4537286, “Permeation of Therapeutic Drugs in Different Formulations across the Airway Epithelium In Vitro” (PLoS ONE, 2015).
